Data on two molecules can be found in patent publication US20080275105A1, “Selective Muscle Relaxant and Pharmaceutical Compositions” (UNIVERSIDADE FEDERAL DO RIO DE JANEIROUFRJ, priority 2004, published 2008).

The test system of assay [1] is aorta rings with no preserved endothelium. In words: Phenylephrine-induced contracture in aorta rings without endothelium. The class given is cell-based, rat. Particulars: for IC50: Rattus norvegicus, phenylephrine 10 μM, without endothelium, six experiments, read-out: CI50 (MM) Average ± SEM. How it is done:
(§1) Once the experiments have been carried out, the findings were subject to statistical analyses being expressed in average ±SEM as a percentage of the control value, and graphs were drawn up using the Sigma Plot 5.0 program to represent the data obtained. For the statistical analysis of the effects on the different muscle tissues, the difference was assessed among the concentrations of the same derivative, using the “t” Student test. In order to ascertain the difference among the derivatives, the one-way ANOVA test was used. The differences were considered as significant for p<0.05. The Cl50 was expressed as an average ±SEM of the values obtained for each experiment through non-linear regression based on the y=yo+ae^−bx equation.
(§2) Male Wistar rats weighing between 240-280 grams were sacrificed through dislocation of the cervical column under anesthesia using ethyl ether. The aorta artery was removed and transferred to a Petri dish containing modified Tyrode's solution whose composition is described in Table 3 below, where the vessel was cleaned and the connective tissue was removed. According to the scheduled Experiment Protocol, the vascular endothelium was removed mechanically with the assistance of a polyethylene rod. The artery was divided into rings with a width of 2-3 mm. Two hooks were placed in the wall of the vessel in order to record the tension generated by the muscle in a transversal direction. To do so, one of the hooks was tied to a fixed point in the chamber and the other to a power transducer (FT 03) for recording the isometric tension. The tension generated by the muscle was transformed into a digitized electric signal (Digidata 1322A) and stored in a computer for subsequent analysis using the Axoscope 8.0 program (Axon Instruments, Inc). The chamber was filled with Krebs solution, oxygenated and kept at a temperature of 37° C.
(§3) After stabilizing the preparation, approximately 120 minutes, the Experiment Protocol began. Initially, in order to identify the presence or absence of the vascular endothelium, the preparation was exposed to phenylephrine (10 μM) and when the contracture in response to this substance was stabilized, acetylcholine (10 μM) was added to the nutrient solution. Relaxation of over 80% in response to the acetylcholine indicated the full integrity of the endothelium and relaxation of less than 10% indicated the absence of endothelium. The tissues in which the relaxation intensity fell between >10% and <80% were discarded. In order to investigate the vasodilator effect of the different L294 analogs, they were added to the experiment chambers in rising concentration after the contracture stabilization of the vessel induced by phenylephrine. The tension registered after treatment with each of the L294 analog concentrations was normalized as a function of the amplitude of the contracture triggered by phenylephrine. For the purpose of comparing the potency of some of the L294 analogs, the Cl50 was determined for each experiment using the y=yo+ae^−bx equation and their mean was used for the statistical analysis.
The importance of the presence of vascular endothelium in the vasodilatory action of the L294 analogs was assessed in experiments in which these cells were removed mechanically. […] When the findings of the experiments without the endothelium were analyzed as a whole, the absence of the L790 effect was confirmed. […] The maximum relaxation caused by the L787 and L789 analogs was less than 50% of the control, and the other analogs caused relaxation in the following decreasing order of efficacy: L785>L788>L786. Once again, attention is drawn to the marked efficiency of the L785 and L788 analogs.

The subject of assay [2] is left ventricle bundles of a rat heart. Description: Isometric tension in ventricular bundles. The class given is cell-based. How it is done:
as §1
After anesthesia with ethyl ether, male Wistar rats weighing between 240-280 grams were sacrificed through cervical dislocation. The heart was removed rapidly and the papillary muscle and the ventricular bundles were dissected in Tyrode's solution, whose composition is given in Table 2 below, at room temperature. The muscles were placed in vertical chambers with a capacity of 10 mL and fixed at their extremities: the lower portion to a hook located in the stimulation electrode fixation rod and the upper portion connected to a power transducer (Grass FT03) for recording the muscle twitches.
The muscles were stimulated electrically with supra-maximum voltage (50-60 V) through a stimulator (Grass S88) at a frequency of 1.0 Hz. The signals captured by the transducer were amplified (Cyberamp 380, Axon Instruments) and the isometric tension was digitized (Digidata 1322A, Axon Instruments) and stored on a computer. The screening and analysis of the experiment was handled through the Axoscope 8.0 program (Axon Instruments) (Sudo & cols., 2001). The chamber solution was bubbled continuously with a carbogenic mixture (95% O2/5% CO2) and kept at a temperature of 37° C.
After the stabilization of the muscle twitches (approximately 30 min) the records were carried out in the absence (control) and presence of rising concentrations (10 to 100 μM) of the different L294 analogs, diluted in DMSO. The records were carried out in pairs (two papillary and two ventricle) thus allowing the control experiments to be carried out in one of the pairs, meaning with rising quantities of DMSO equivalent to those used to dilute the substances. The reversibility of the effect of the substances was investigated at the end of each experiment, noting the recovery of the muscle twitches after bathing the preparation with Tyrode's solution.

Assay [3] relates to extensor digitorium longus (EDL) muscle. In words: Electrically induced twitch amplitude in fast-fiber skeletal muscle (EDL). It counts as cell-based, mice. How it is done:
Male mice weighing 22-28 g were sacrificed through cervical dislocation and the extensor digitorium longus (EDL) and soleus (SOL) muscles were dissected in a Ringer-Krebs solution, whose composition is given in Table 9, at room temperature. The muscles were placed in vertical chambers with a capacity of 10 ml, and were fixed by their ends to the stimulation electrode fixation rod and a power transducer (Grass FT03) for registering muscle twitches. The chamber solution was bubbled continuously with a carbogenic mixture (95% O2/5% CO2) and kept at a temperature of 37° C. The muscles were stimulated electrically through a stimulator (Grass S88) at a frequency of 0.2 Hz, at 37° C. After the stabilization of the muscle twitches (±30 minutes) a control record was taken in the absence of the drug, and subsequently rising concentrations (from 10 μM to 200 μM) of the L294 derivatives were added every ten minutes, diluted in DMSO. […] The signals recorded by the transducer were amplified (Cyberamp) and the isometric tension was digitized (Digidata 1322A) and stored on a computer. The screening and analysis of the experiment was handled through the use of the Axoscope 8.0 program. (Zapata-Sudo, 2003).
A measurement of the electrically-induced twitch amplitude was selected to assist the effects of the L294 analogs on the skeletal muscle inotropism. One muscle consisting of fast fibers (extensor digitorium longus-EDL) and the other of slow fibers (soleus-SOL) taken from mice were selected for this purpose. Differences in the timing of the twitches between the fast and slow muscles are shown at the faster recording speed. […] Washing the preparation with Krebs solution caused a partial reversion of the effects induced by the L786.

Assay [4] deals with rat aorta rings with preserved endothelium. Description: KCl-induced contracture in aorta rings with preserved endothelium. It counts as cell-based. The following applies: KCl 40 mM; for amplitude of the KCl contracture, with endothelium: 200 μM stated for L790; for IC50: Rattus norvegicus, with endothelium, six experiments, read-out: CI50 (μM) Average ± SEM. How it is done:
as §1, §2, §3
The effects of the L294 analogs were investigated in rat aorta rings with preserved endothelium whose contracture was induced by increasing the extra-cellular concentration of KCl to 40 mM. Of the seven L294 analogs, this test was carried out only with the L785, L786, L789 and L790, in this group of experiments.

Consider `O=C(c1ccc2c(c1)OCO2)N(Cc1ccccc1)/N=C/c1cccs1` [L786, 1,3-Benzodioxol-5-carboxylic acid, N-benzyl-N′-[1-thiophene-2-yl-meth-(E)-ylidene]-hydrazide], for which the IC50 in assay [1] is 86.2 ± 7.1 µM; in assay [4], 127 ± 13.7 µM. In addition, in assay [2] (100 μM), the “muscle twitches / contractility in ventricular bundles” value is given as 79.9±10.6 % of the control. Moreover, the “effect on EDL muscle twitches” value in assay [3] (50 μM, result in words) is “reduction in the amplitude and an extension in the duration of the muscle twitches”. Further, the “EDL twitch amplitude 200 μM (% of the control)” value in assay [3] is on record as 28.7±9.9 % of the control. Also, in assay [4], the “amplitude of the KCl contracture, with endothelium” value is recorded as 51.1±2.8 % of the control.

`CN(/N=C/c1cccs1)C(=O)c1ccc2c(c1)OCO2` [L785, 1,3-Benzodioxol-5-carboxylic acid, N-methyl-N′-[1-thiophene-2-yl-meth-(E)-ylidene]-hydrazide]: the “relaxation of phenylephrine contracture, without endothelium” value in assay [1] (100 μM, result in words) is “relaxation was almost total”. In addition, the IC50 in assay [1] came out at 18.5 ± 3.6 µM. Further, the “muscular response in ventricular bundles” value in assay [2] (concentration not given, alterations not greater than 10%) was 96.5±3.8 % of the control. The “EDL twitch amplitude 200 μM (% of the control)” value in assay [3] was 31.6±4.7 % of the control. Besides, the “EDL twitch amplitude 30 min-Washing (% of the control)” value in assay [3] (30 min after washing) was 36.4 ± 4.5 % of the control. In assay [4], the “amplitude of the KCl contracture, with endothelium” value is listed as 8.1±3.8 % of the control and the IC50 is 34.1 ± 6.3 µM.
